Values after ≈ are worked out from the molar mass of the structure shown.
What was measured:
[1] = Human Plasma Protein Binding (Test B); type: in vitro ADME; details: fraction unbound (fu)
Procedure, shortened: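 Human plasma protein binding run per the published Wernevik et al. (2020) integrated DMPK panel protocol. Values are fraction unbound (fu, % free); repeat runs averaged arithmetically.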

[2] = Human Liver Microsomal Stability (Test C); type: in vitro ADME; details: human, liver microsomes
Procedure, shortened: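 Human liver microsome incubation per the Wernevik et al. integrated DMPK panel protocol. Intrinsic clearance reported as CLint in μl/min/mg protein, averaged arithmetically over repeat runs.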

[3] = Solubility (Test F); type: physicochemical; details: arithmetic mean if run multiple times
Method: The assay was conducted according to the Solubility Assay described in pages 164-167 of Wernevik, J. et al., “A Fully Integrated Assay Panel for Early Drug Metabolism and Pharmacokinetics Profiling”, Assay and Drug Development Technologies, 2020, 18(4), 157-179. Data are reported in Table 36 as solubility ([…]. Where the assay was run multiple times for the same compound, the arithmetic mean is reported.

[4] = biological target: T1, human RXFP1 (Homo sapiens, UniProt Q9HBX9); experiment: RXFP1 Hu cAMP (Test A); type: cell-based; set-up: expressed in transfected cells; host or cells: Jump-In T-REx CHO-K1 cells (ThermoFisher), induced with 10 ng/ml doxycycline for 24 h; details: RXFP1 Hu cAMP; for EC50: read-out: Test A EC50
T1 sequence (Q9HBX9 1-757): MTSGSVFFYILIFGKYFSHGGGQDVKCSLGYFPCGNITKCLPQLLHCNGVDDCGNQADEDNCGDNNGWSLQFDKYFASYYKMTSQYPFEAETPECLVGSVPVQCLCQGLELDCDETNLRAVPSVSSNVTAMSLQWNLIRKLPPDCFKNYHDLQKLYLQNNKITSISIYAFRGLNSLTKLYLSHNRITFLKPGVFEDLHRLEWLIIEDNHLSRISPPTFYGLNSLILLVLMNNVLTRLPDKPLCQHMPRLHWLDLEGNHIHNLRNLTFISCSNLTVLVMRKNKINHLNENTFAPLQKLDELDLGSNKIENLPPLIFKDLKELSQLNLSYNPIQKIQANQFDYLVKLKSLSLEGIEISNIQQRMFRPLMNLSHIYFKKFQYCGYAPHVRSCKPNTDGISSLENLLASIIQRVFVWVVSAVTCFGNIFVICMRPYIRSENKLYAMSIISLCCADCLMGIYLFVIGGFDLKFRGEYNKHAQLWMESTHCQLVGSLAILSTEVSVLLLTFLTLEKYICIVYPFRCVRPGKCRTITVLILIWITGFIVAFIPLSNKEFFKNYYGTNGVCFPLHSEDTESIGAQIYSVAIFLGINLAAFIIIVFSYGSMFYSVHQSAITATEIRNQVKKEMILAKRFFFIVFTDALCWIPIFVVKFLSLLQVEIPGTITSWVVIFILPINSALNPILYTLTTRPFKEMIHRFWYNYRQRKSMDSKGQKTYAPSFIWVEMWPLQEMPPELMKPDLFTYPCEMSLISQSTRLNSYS
Procedure, shortened: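 Cells: CHO-K1 stably carrying human RXFP1, expressed after 24 h 10 ng/ml doxycycline; 0.5 mM IBMX final, HTRF detection after 2 h at room temperature.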

[5] = Rat Hepatocyte Stability (Test E); type: in vitro ADME; details: rat, hepatocytes, geometric mean if run multiple times
Procedure, shortened: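 Run per the published AstraZeneca-type rat hepatocyte stability protocol (Wernevik et al. panel). Values are mean intrinsic clearance, Clint in μl/min/10^6 cells; geometric mean used for repeated runs.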

Structure (SMILES)	Test B Human Plasma Protein Binding (% free) [1] [% free]	microsomal CLint [2] [µL/min/mg]	solubility [3] [µM]	Test A Sinf [4] [%]	EC50 [4] [nM]	hepatocyte CLint [5] [µL/min/1e6 cells]
COc1cc(F)c(O[C@H]2CC[C@@H](C(=O)O)CC2)cc1C(=O)N[C@@H]1[C@H]2CC[C@H](C2)[C@@H]1C(=O)Nc1cccc(C(F)(F)F)c1 [Example 193]	0.93	29	> 1000	105	62	61
COc1cc(NC(=O)[C@H]2[C@@H]3CC[C@@H](C3)[C@H]2NC(=O)c2cc(O[C@H]3CC[C@@H](C(=O)O)CC3)c(F)cc2OC)cc(C(F)(F)F)c1 [Example 194]	0.53	31	530 (≈ 330 µg/mL)	99	470	24
COc1cc(F)c(O[C@H]2CC[C@@H](C(=O)O)CC2)cc1C(=O)N[C@@H]1[C@H]2CC[C@H](C2)[C@@H]1C(=O)Nc1cccc(OC(F)F)c1 [Example 195]	1.6	28	860 (≈ 508 µg/mL)	131	830	130
COc1cc(F)c(O[C@H]2CC[C@@H](C(=O)O)CC2)cc1C(=O)N[C@@H]1[C@H]2CC[C@H](C2)[C@@H]1C(=O)Nc1cccc(C(C)C)c1 [Example 196, (1S,4s)-4-(2-Fluoro-5-(((1S,2R,3S,4R)-3-((3-isopropylphenyl)carbamoyl)bicyclo[2.2.1]heptan-2-yl)carbamoyl)-4-methoxyphenoxy)cyclohexane-1-carboxylic acid]	1.7	40	290 (≈ 164 µg/mL)	103	220	79
COc1cc(F)c(-c2ccc(C(=O)O)cc2)cc1C(=O)N[C@@H]1[C@H]2CC[C@H](C2)[C@@H]1C(=O)Nc1cccc(S(F)(F)(F)(F)F)c1 [Example 209, 2′-Fluoro-4′-methoxy-5′-(((1S,2R,3S,4R)-3-((3-(pentafluoro-λ6-sulfaneyl)phenyl)carbamoyl)bicyclo[2.2.1]heptan-2-yl)carbamoyl)-[1,1′-biphenyl]-4-carboxylic acid]	0.10	21	54 (≈ 33.9 µg/mL)	101	88	23
COc1cc(F)c(-c2ccc(C(=O)O)cc2)cc1C(=O)N[C@@H]1[C@H]2CC[C@H](C2)[C@@H]1C(=O)Nc1ccc(S(F)(F)(F)(F)F)cc1 [Example 210, 2′-Fluoro-4′-methoxy-5′-(((1S,2R,3S,4R)-3-((4-(pentafluoro-λ^6-sulfaneyl)phenyl)carbamoyl)bicyclo[2.2.1]heptan-2-yl)carbamoyl)-[1,1′-biphenyl]-4-carboxylic acid]	0.049	< 3	67 (≈ 42.1 µg/mL)	50	> 3600	10
COc1cc(F)c(O[C@H]2CC[C@@](C)(C(=O)O)CC2)cc1C(=O)Nc1c(C)cc(C)cc1C(=O)NCC1(C)CCC1 [Example 211, (1s,4s)-4-(5-((2,4-Dimethyl-6-(((1-methylcyclobutyl)methyl)carbamoyl)phenyl)carbamoyl)-2-fluoro-4-methoxyphenoxy)-1-methylcyclohexane-1-carboxylic acid]	1.4	5.2	29 (≈ 16.1 µg/mL)	100	> 9300	12
COc1cc(F)c(O[C@H]2CC[C@@](C)(C(=O)O)CC2)cc1C(=O)Nc1cc(C)c(C)cc1C(=O)NCC1(C)CCC1 [Example 212, (1s,4s)-4-(5-((4,5-Dimethyl-2-(((1-methylcyclobutyl)methyl)carbamoyl)phenyl)carbamoyl)-2-fluoro-4-methoxyphenoxy)-1-methylcyclohexane-1-carboxylic acid]	<2.7	6.5	4 (≈ 2.22 µg/mL)	134	310	17
COc1cc(F)c(O[C@H]2CC[C@@](C)(C(=O)O)CC2)cc1C(=O)Nc1cc2ccccc2cc1C(=O)NCC1(C)CCC1 [Example 215, (1s,4s)-4-(2-Fluoro-4-methoxy-5-((3-(((1-methylcyclobutyl)methyl)carbamoyl)naphthalen-2-yl)carbamoyl)phenoxy)-1-methylcyclohexane-1-carboxylic acid]	0.20	< 3	< 0.23	143	200	20
COc1cc(F)c(O[C@H]2CC[C@@](C)(C(=O)O)CC2)cc1C(=O)Nc1nn2cccnc2c1C(=O)NCC1(C)CCC1 [Example 217, (1s,4s)-4-(2-Fluoro-4-methoxy-5-((3-(((1-methylcyclobutyl)methyl)carbamoyl)pyrazolo[1,5-a]pyrimidin-2-yl)carbamoyl)phenoxy)-1-methylcyclohexane-1-carboxylic acid]	0.19	43	< 7.3	–	> 9400	17
COc1cc(F)c(-c2ccc(C(=O)O)c(F)c2)cc1C(=O)N[C@@H]1[C@H]2CC[C@H](C2)[C@@H]1C(=O)Nc1cccc(S(=O)(=O)C(F)(F)F)c1 [Example 236, 2′,3-Difluoro-4′-methoxy-5′-(((1S,2R,3S,4R)-3-((3-((trifluoromethyl)sulfonyl)phenyl)carbamoyl)bicyclo[2.2.1]heptan-2-yl)carbamoyl)-[1,1′-biphenyl]-4-carboxylic acid]	0.50	13	> 1000	103	210	14
COc1cc(F)c(-c2cnc(NCC(=O)O)nc2)cc1C(=O)N[C@@H]1[C@H]2CC[C@H](C2)[C@@H]1C(=O)Nc1cccc(S(=O)(=O)C(F)(F)F)c1 [Example 240]	2.3	19	780 (≈ 519 µg/mL)	97	130	12
COc1cc(F)c(-c2ccc(OCC(=O)O)nc2)cc1C(=O)N[C@@H]1[C@H]2CC[C@H](C2)[C@@H]1C(=O)Nc1cccc(S(=O)(=O)C(F)(F)F)c1 [Example 241]	0.69	12	550 (≈ 366 µg/mL)	99	140	12
COc1cc(F)c(-c2ccc3c(c2)OC[C@H]3CC(=O)O)cc1C(=O)N[C@@H]1[C@H]2CC[C@H](C2)[C@@H]1C(=O)Nc1cccc(S(=O)(=O)C(F)(F)F)c1 [Example 253]	<0.32	24	> 1000	102	31	8.8
COc1cc(F)c(-c2ccc3c(c2)OC[C@@H]3CC(=O)O)cc1C(=O)N[C@@H]1[C@H]2CC[C@H](C2)[C@@H]1C(=O)Nc1cccc(S(=O)(=O)C(F)(F)F)c1 [Example 254]	0.30	31	> 1000	114	34	12

Reference: patent publication US11667602B2, “Compounds and their use” (AstraZeneca AB, priority 2020, dated 2023)
